Assays:
Settings in all cases: 72 h
[1] = test system: BV-173
Outline: (§1)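 Seeded in RPMI 1640 at densities within the linear growth range, fifteen myeloid leukaemia cell lines were dispensed into 384-well plates with acoustically pre-printed compounds spanning five tenfold doses from 1 to 10,000 nM, in duplicate. The plates were kept for 72 h at 37 °C in 5% CO2 before luminescent ATP viability was measured and normalised to vehicle and to a positive control at 10 µM. Curves were fitted with a four-parameter log-logistic model. The IC50 was taken from those curves.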

[2] = test system: HEL
Outline: as §1

[3] = test system: HL-60
Outline: as §1

[4] = test system: K-562
Outline: as §1

[5] = test system: KCL-22
Outline: as §1

[6] = test system: KG-1
Outline: as §1

[7] = test system: KU-812
Outline: as §1

[8] = test system: LAMA-84
Outline: as §1

[9] = test system: ML-2
Outline: as §1

[10] = test system: MOLM-13
Outline: as §1

[11] = test system: MV4-11
Outline: as §1

[12] = test system: Mono-Mac-6
Outline: as §1

[13] = test system: NOMO-1
Outline: as §1

[14] = test system: SHI-1
Outline: as §1

[15] = test system: THP-1
Outline: as §1

[16] = test system: BV-173; assay: cell viability (% survival relative to DMSO control, bortezomib = 0%); higher = less cytotoxic
Outline: (§2)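 Fifteen myeloid leukaemia cell lines were exposed to compounds at 1, 10, 100, 1000 or 10000 nM in 384-well plates for 72 h at 37 °C and 5% CO2. Viability was read by CellTiter-Glo luminescence and normalised, with vehicle as 100% and a 10 µM positive control as 0%. Values are percent survival averaged over duplicates.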

[17] = test system: HEL; assay: as above
Outline: as §2

[18] = test system: HL-60; assay: as above
Outline: as §2

[19] = test system: KCL-22; assay: as above
Outline: as §2

[20] = test system: KG-1; assay: as above
Outline: as §2

[21] = test system: KU-812; assay: as above
Outline: as §2

[22] = test system: LAMA-84; assay: as above
Outline: as §2

[23] = test system: ML-2; assay: as above
Outline: as §2

[24] = test system: MOLM-13; assay: as above
Outline: as §2

[25] = test system: MV4-11; assay: as above
Outline: as §2

[26] = test system: Mono-Mac-6; assay: as above
Outline: as §2

[27] = test system: NOMO-1; assay: as above
Outline: as §2

[28] = test system: SHI-1; assay: as above
Outline: as §2

[29] = test system: THP-1; assay: as above
Outline: as §2

[30] = test system: HL-60; assay: area under dose-response curve (viability, 1 nM-10 uM) (fraction (0-1)); higher = more sensitive
Outline: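 In 384-well plates, the full library was rescreened in duplicate on HL-60 cells in RPMI 1640 with 10% FBS, at 1–10,000 nM in five tenfold concentrations, for 72 h at 37 °C, 5% CO2. Each run also held DMSO or 100 nM of one of three metabolic inhibitors. Viability was measured by CellTiter-Glo and normalised to DMSO wells and to wells with proteasome inhibitor, present at 10 μM. Any area under the curve comes from four-parameter log-logistic fitting with drc and PharmacoGx.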

CC[C@@]1(O)C(=O)OCc2c1cc1n(c2=O)Cc2cc3c(CN(C)C)c(O)ccc3nc2-1 [Topotecan]
Settings	IC50 (cell viability) [nM]
[1]	11.4
[2]	33.3
[3]	22.5
[4]	97
[5]	59.4
[6]	42.7
[7]	40.7
[8]	65.4
[9]	24.5
[10]	18
[11]	11.9
[12]	34.4
[13]	40.5
[14]	24
[15]	289

Settings	area under dose-response curve, co-treatment: AZD3965 100 nM	area under dose-response curve, co-treatment: DMSO vehicle	area under dose-response curve, co-treatment: GSK2194069 100 nM	area under dose-response curve, co-treatment: pictilisib 100 nM	cell viability, 1 nM [%]	cell viability, 10 nM [%]	cell viability, 100 nM [%]	cell viability, 1000 nM [%]	cell viability, 10000 nM [%]
[16]	–	–	–	–	100	56.7	-0.0236	0.0225	0.196
[17]	–	–	–	–	94.8	103	0.201	0.373	0.268
[18]	–	–	–	–	94.9	81.7	0.181	0.081	1.02
[19]	–	–	–	–	97.2	97.8	27.9	5.33	1.56
[20]	–	–	–	–	95.6	91.2	21.3	8.99	6.8
[21]	–	–	–	–	95.5	99.6	13.1	3.16	1.45
[22]	–	–	–	–	93.6	97.4	29.2	1.78	0.506
[23]	–	–	–	–	94.6	84.8	0.565	0.238	3.1
[24]	–	–	–	–	91.4	70.9	0.317	2.79	0.537
[25]	–	–	–	–	91.1	54.2	2	2.09	-0.156
[26]	–	–	–	–	87.3	98	2.7	0.495	0.236
[27]	–	–	–	–	98.7	98.9	12.6	2.17	0.853
[28]	–	–	–	–	97.1	85.8	0.99	-0.151	0.783
[29]	–	–	–	–	98.8	102	78.5	30.4	13.6
[30]	0.608	0.585	0.58	0.597	–	–	–	–	–

Source: the supplement of paper PMC8671470
